Measured values: patent US7321046B2, “Analogs of dictyostatin, intermediates therefor and methods of synthesis thereof” (University of Pittsburgh, priority 2002, dated 2008)
Where two headings read alike, the source gives them in different places.

How the values were obtained:
[1] = test system: human ovarian carcinoma cells (1A9); assay: Antiproliferative assay (GI50, MTS); type: cell-based; conditions: for antiproliferative potency / GI50 values (in words): Table 1 (1A9 and mutant lines)
Description: (§1) Representative analogs were examined for their antiproliferative activities against human ovarian carcinoma 1A9 cells and their paclitaxel-resistant mutants, 1A9/Ptx10 and 1A9/Ptx22.
[…] Cells were maintained in RPMI medium with 10% FBS in it, plated in tissue culture plates, and allowed to grow for 48-72 h before transferring them into 96-well plates. Cells were allowed to attach and grow for 48 h in 96-well plates after which they were treated with either control (DMSO) or drug in triplicate/quadruplicate. Cells were incubated with the compounds for 72 h. Cells were treated with MTS reagent before reading the plate in a Dynamax plate reader for determining the cell number. The fifty percent growth inhibition values (GI50 values) were calculated for the compounds against all the three cell lines.

[2] = test system: T1, Bovine brain tubulin; assay: Pelleting assay (tubulin assembly EC50 determination); type: biochemical; conditions: tubulin 10 μM in 0.2 M MSG, 15 min at 20° C.; for EC50: concentration required to polymerize 50% of tubulin, read-out: EC50 (μM) ± SD (N)
T1 construct: Bovine brain tubulin (10 μM) in 0.2 M MSG, 15 min at 20° C
Description: Dictyostatin and representative analogs were evaluated in a quantitative assay for their ability to promote tubulin polymerization. […] When the percent polymer formed was determined in the reactions, a comparison of the activities of all the analogs could be made.
The assay was performed under three different reaction conditions following the procedure reported earlier (Gapud et al., 2004). Reaction condition 1 included 0.2 M monosodium glutamate (MSG), 10 μM tubulin, 5% DMSO and varying concentrations of test agents. Reaction condition 2 included 0.8 M MSG, 400 μM GTP, 10 μM tubulin, 5% DMSO, and varying concentrations of test agents. Reaction condition 3 had 0.6 M MSG, 200 μM GTP, and 10 μM tubulin, and 5% DMSO, and varying concentrations of the test agents. The experimental protocol for all the three reaction conditions was the following. The reaction mixtures were incubated at room temperature (20-22° C.) for 15 min and spun for 10 min at 14,000 rpm in an Eppendorf microtube centrifuge. Aliquots of the supernatants were removed and assayed for protein content by the method of Lowry.

[3] = test system: microtubules (tubulin polymer); assay: Radiolabeled ligand binding assays; conditions: test agent 4 μM; radiolabel 4.0 μM; 37° C.
Description: The abilities of test agents to inhibit the binding of radiolabeled forms of the microtubule stabilizers paclitaxel, discodermolide and epothilone B from tubulin polymer were determined.
[^3H]Paclitaxel, [^3H]discodermolide and [^14C]epothilone B solutions were prepared as 125 μM stock solutions in 50% DMSO. Radiolabeled compound (final concentration, 4.0 μM) and test agents at final concentrations noted in the text and tables were mixed in 50 μL of 4:1 (v/v) 0.75 M aqueous MSG/DMSO and warmed to 37° C. Meanwhile, a reaction mixture containing 0.75 M MSG, 2.5 μM tubulin, and 25 μM ddGTP was prepared and incubated at 37° C. for 30 min to form microtubuless. A 200 μL aliquot of the microtubule mixture was added to the drug mixtures, and incubation continued for 30 min at 37° C. Reaction mixtures were centrifuged in an Eppendorf 5417C centrifuge at 14,000 rpm for 20 min at room temperature. Radiolabel in the supernatants (100 μL) was determined by scintillation spectrometry.

[4] = test system: HeLa cells; assay: Multiparameter fluorescence high information content analysis of cellular effects; type: cell-based; design: unit not given here; conditions: 24 h treatment; for Minimum detectable cellular change, Nuclear condensation: Hoechst 33342
Description: HeLa cells were plated on collagen-coated 384-well microtiter plates, allowed to attach, then treated for 24 h with test agents. Test agent concentrations began at 1 μM, and two-fold dilutions were made to levels below 1 nM. After the treatment period, the cells were fixed with formalin and their chromatin stained with Hoechst 33342. Cells were permeabilized and treated with primary antibodies for α-tubulin and phosphohistone H3, and then with fluorophore-labeled secondary antibodies. The three fluorescent channels were then examined on an ArrayScan II, which gives quantitative pixel distribution and density information in each channel on a per cell basis.
HeLa cells growing at log phase were trypsinized and plated in 40 μL at a density of 7,000-8,000 cells per well in calf skin collagen I-coated 384-well plates (Falcon #3962; Fisher Scientific). Cells were exposed to test agents or 0.5% DMSO within 2-8 h of plating. Concentrated DMSO stock solutions of all test agents were diluted into solutions of HBSS medium plus 10% FBS and added to the microplate wells (10 μL per well), using an automated liquid handling system (Biomek® 2000; Beckman-Coulter, Inc.) to provide a serial 2-fold dilution of each test agent. The cells were incubated in the presence of test agents for 24 h. At the end of the incubation, the medium was removed and replaced with HBSS containing 4% formaldehyde and 10 μg/mL Hoechst 33342 (25 μL/well) to fix the cells and fluorescently label their chromatin. After incubation at room temperature for 20-30 min, the solution was removed from each well and replaced with HBSS (100 μL/well). Further reagent additions were made to the microplates using the Biomek 2000. After removing the HBSS from each well, cells were permeabilized for 5 min at room temperature with 0.5% (w/w) Triton X-100 in HBSS (10 μL/well). This step extracts a fraction of the soluble cellular components, including soluble tubulin. The wells were washed with HBSS (100 μL/well), followed by addition of a primary antibody solution containing mouse anti-α-tubulin (1:3000) and rabbit anti-phosphohistone H3 (1:500) in HBSS (10 μL/well). After 1 h at room temperature, the wells were washed with HBSS as above, followed by the addition of a secondary antibody solution containing fluorescein-5-isothiocyanate (FITC)-labeled donkey anti-mouse (1:300) and Cy3-labeled donkey anti-rabbit (1:300) antibodies diluted in HBSS (10 μL/well). After 1 h at room temperature, the wells were washed as above, and HBSS was added (100 μL/well). The plates were placed in an ArrayScan® HCS Reader with the Target Activation BioApplication Software coupled to Cellomics® Store and the vHCS™ Discovery Toolbox (Cellomics, Inc.) to analyze images. Briefly, the instrument was used to scan multiple optical fields, each with multiparameter fluorescence, within a subset of the wells of the 384-well microplate. The BioApplication software produced multiple numerical feature values, such as subcellular object intensities, shapes, and location for each cell within an optical field. […] A nuclear mask was generated from Hoechst 33342-stained nuclei, and object identification thresholds and shape parameters were set such that the algorithm identified over 90% of the nuclei in each field. Objects that touched each other or the edge of the image were excluded from the analysis. Tubulin mass was defined as the average green (FITC) pixel intensity in an area defined by the Hoechst-defined nuclear mask. This cytoplasmic area around the nucleus contains cytoskeletal components is a region from which sensitive measurements of cytoplasmic characteristics can be made.

[5] = test system: 1A9/Ptx10 (Phe270 −> Val) β-tubulin mutant cells; assay: Antiproliferative assay (GI50, MTS), paclitaxel-resistant clone; type: cell-based, human; conditions: for fold-resistance: 1A9/Ptx10 versus parental 1A9
Description: as §1
(§2) The effects of dictyostatin and its analogs on growth inhibition of parental ([…]) and paclitaxel-resistant (1A9/Ptx10 and Ptx22) ovarian adenocarcinoma cell lines were evaluated following the antiproliferative assay protocol as described earlier (Minguez et al., 2003; Choy et al., 2003; Lazo et al., 2001). Cells were maintained in RPMI medium with 10% FBS in it, plated in tissue culture plates, and allowed to grow for 48-72 h before transferring them into 96-well plates. Cells were allowed to attach and grow for 48 h in 96-well plates after which they were treated with either control (DMSO) or drug in triplicate/quadruplicate. Cells were incubated with the compounds for 72 h. Cells were treated with MTS reagent before reading the plate in a Dynamax plate reader for determining the cell number. The fifty percent growth inhibition values (GI50 values) were calculated for the compounds against all the three cell lines.

[6] = test system: 1A9/Ptx22 (Ala364 −> Thr) β-tubulin mutant cells; assay: as above; type: cell-based, human; conditions: for fold-resistance: 1A9/Ptx22 versus parental 1A9
Description: as §1, §2

[7] = Homo sapiens, Ovarian carcinoma cell, 72 h, read-out: GI50 ± S.D., 1A9 parental cells, 72 h incubation
[8] = Homo sapiens, 1A9/ptx-10, 72 h, read-out: GI50 ± S.D., 1A9/Ptx10 (Phe270 −> Val), 72 h incubation
[9] = Homo sapiens, 1A9/ptx-22, 72 h, read-out: GI50 ± S.D., 1A9/Ptx22 (Ala364 −> Thr), 72 h incubation

SMILES	antiproliferative potency / GI50 values (in words) [1]	% Tubulin polymerized by 50 μM test agent [2] [%]	EC50 [2] [µM]	Percent inhibition of radiolabel from microtubules, [3H]Paclitaxel [3]	Minimum detectable cellular change, Phosphohistone H3 [4]	Minimum detectable cellular change, Tubulin polymer intensity [4]	Minimum detectable cellular change, Nuclear condensation [4]	fold-resistance [5] [fold]	fold-resistance [6] [fold]	Percent inhibition of radiolabel from microtubules, [3H]Discodermolide [3]	Percent inhibition of radiolabel from microtubules, [14C]Epothilone B [3]	GI50 [1, 7] [µM]	GI50 [5, 8] [µM]	GI50 [6, 9] [µM]	also measured
C=CC=CC(C)C1OC(=O)C=CC=CC(C)C(O)CC(O)C=CC(C)C(O)C(C)CC(C)CCC(O)C1C [Compound 109, 8(S),10(S),14(R),20(S)-Tetrahydroxy-7(S),13(S),15(R),17(S),21(S)-pentamethyl-22(S)-(1(S)-methyl-penta-2,4-dienyl)oxacyclodocosa-3(E),5(E),11(Z)-trien-2-one]	mid micromolar GI50 values	5 ± 4	> 50	0 ± 1%	>5000 (4)	>5000 (4)	>5000 (4)	1	1.2						GI50 ([1]; read-out: GI50 ± S.D., 1A9 parental cells, 72 h incubation): 25 ± 2 µM; GI50 ([5]; read-out: GI50 ± S.D., 1A9/Ptx10 (Phe270 −> Val), 72 h incubation): 25 ± 1 µM; GI50 ([6]; read-out: GI50 ± S.D., 1A9/Ptx22 (Ala364 −> Thr), 72 h incubation): 30 ± 1 µM
CC(=O)O[C@@]12CO[C@@H]1C[C@H](O)[C@@]1(C)C(=O)[C@H](O)C3=C(C)[C@@H](OC(=O)[C@H](O)[C@@H](NC(=O)OC(C)(C)C)c4ccccc4)C[C@@](O)([C@@H](OC(=O)c4ccccc4)[C@H]21)C3(C)C [docetaxel]				63 ± 8 (4) %						8 ± 6 (3) %	36 ± 1 (3) %				
C=CC=CC(C)C1OC(=O)C=CC=CC(C)C(O)CC(O)C=CC(C)C(O)C(C)CC(C)CCC(O)C1C [Compound 108, 8(S),10(S),14(R),20(S)-Tetrahydroxy-7(S),13(S),15(R),17(S),21(S)-pentamethyl-22(S)-(1(S)-methyl-penta-2,4-dienyl)oxacyclodocosa-3(Z),5(E),11(Z)-trien-2-one]	mid micromolar GI50 values	5 ± 1	> 50	0 ± 1%	>5000 (4)	>5000 (4)	>5000 (4)	0.9	1.1			28 ± 1	26	30 ± 1	
C=C/C=C\[C@H](C)[C@H](O)[C@@H](C)[C@H](CC[C@H](C)C[C@@H](C)[C@@H](O[Si](C)(C)C(C)(C)C)[C@@H](C)/C=C\[C@H](C[C@H](O[Si](C)(C)C(C)(C)C)[C@@H](C)/C=C/C=C\C(=O)O)O[Si](C)(C)C(C)(C)C)O[Si](C)(C)C(C)(C)C [Compound 107, (2Z,4E,6S,7S,9S,10Z,12S,13R,14R,16S,19S,20R,21S,22S,23Z)-7,9,13,19-tetrakis(tert-Butyldimethylsilyloxy)-21-hydroxy-6,12,14,16,20,22-hexamethylhexacosa-2,4,10,23,25-pentaenoic acid]												> 0.5	> 0.5	> 0.5	
C/C(=C\c1csc(C)n1)[C@@H]1C[C@@H]2O[C@@H]2CCC[C@H](C)[C@H](O)[C@@H](C)C(=O)C(C)(C)[C@@H](O)CC(=O)O1 [epothilone A]				53 ± 4 (4) %						6 ± 6 (3) %	25 ± 3 (3) %				
C/C(=C\c1csc(C)n1)[C@@H]1C[C@@H]2O[C@]2(C)CCC[C@H](C)[C@H](O)[C@@H](C)C(=O)C(C)(C)[C@@H](O)CC(=O)O1 [epothilone B]										14 ± 3%					
